These results are taken from patent publication US10670605B2, “Cysteine reactive probes and uses thereof” (The Scripps Research Institute, priority 2015, dated 2020).

Test in all cases: Competitive isoTOP-ABPP in situ (fragment-treated cells)
Holding throughout (type): cell-based

In test [1] the target is T1, cysteines in MDA-MB-231 and Ramos cells (Homo sapiens, UniProt Q13428).
T1 sequence (Q13428 1-1488): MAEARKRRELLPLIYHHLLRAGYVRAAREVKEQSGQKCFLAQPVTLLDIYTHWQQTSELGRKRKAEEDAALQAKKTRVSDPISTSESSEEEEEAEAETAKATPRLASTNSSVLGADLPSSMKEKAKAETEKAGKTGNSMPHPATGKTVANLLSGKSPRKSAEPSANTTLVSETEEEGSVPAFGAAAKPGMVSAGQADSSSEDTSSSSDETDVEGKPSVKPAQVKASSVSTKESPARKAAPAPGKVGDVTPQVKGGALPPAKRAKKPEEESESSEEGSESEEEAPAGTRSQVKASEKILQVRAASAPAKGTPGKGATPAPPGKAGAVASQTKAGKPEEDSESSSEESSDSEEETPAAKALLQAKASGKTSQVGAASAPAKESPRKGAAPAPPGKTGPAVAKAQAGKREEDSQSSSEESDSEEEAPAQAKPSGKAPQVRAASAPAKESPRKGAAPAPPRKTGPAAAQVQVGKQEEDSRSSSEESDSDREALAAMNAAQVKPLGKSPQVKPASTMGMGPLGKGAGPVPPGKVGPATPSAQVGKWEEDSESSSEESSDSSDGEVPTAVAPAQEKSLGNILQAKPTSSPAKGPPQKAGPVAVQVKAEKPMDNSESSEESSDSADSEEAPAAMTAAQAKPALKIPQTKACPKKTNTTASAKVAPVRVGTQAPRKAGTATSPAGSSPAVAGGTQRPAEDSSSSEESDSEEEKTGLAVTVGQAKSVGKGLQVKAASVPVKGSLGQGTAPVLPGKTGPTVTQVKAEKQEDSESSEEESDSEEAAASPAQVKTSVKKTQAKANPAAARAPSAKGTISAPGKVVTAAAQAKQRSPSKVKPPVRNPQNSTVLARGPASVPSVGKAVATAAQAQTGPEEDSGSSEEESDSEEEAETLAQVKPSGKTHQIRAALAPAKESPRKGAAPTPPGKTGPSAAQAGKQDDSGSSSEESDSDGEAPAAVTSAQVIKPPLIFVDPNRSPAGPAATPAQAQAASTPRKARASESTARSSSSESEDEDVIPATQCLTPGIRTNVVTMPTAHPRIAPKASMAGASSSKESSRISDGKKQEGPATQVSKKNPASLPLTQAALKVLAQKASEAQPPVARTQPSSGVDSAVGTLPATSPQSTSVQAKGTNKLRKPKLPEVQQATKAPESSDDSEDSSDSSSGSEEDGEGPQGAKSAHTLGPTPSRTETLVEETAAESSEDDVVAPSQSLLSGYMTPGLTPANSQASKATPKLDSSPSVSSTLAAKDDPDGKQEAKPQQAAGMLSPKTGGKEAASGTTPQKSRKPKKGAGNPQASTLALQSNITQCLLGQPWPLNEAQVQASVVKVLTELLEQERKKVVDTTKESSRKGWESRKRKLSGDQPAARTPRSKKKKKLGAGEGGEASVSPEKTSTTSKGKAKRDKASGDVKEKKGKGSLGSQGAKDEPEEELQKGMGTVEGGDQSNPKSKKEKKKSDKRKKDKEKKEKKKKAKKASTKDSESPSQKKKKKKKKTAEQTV

Test [2] has as its target cysteines in MDA-MB-231 and Ramos cells (Homo sapiens, UniProt Q15365).
Test [3] addresses cysteines in MDA-MB-231 and Ramos cells (Homo sapiens, UniProt Q8TAQ2).
Test [4] has as its target T2, cysteines in MDA-MB-231 and Ramos cells (Homo sapiens, UniProt Q96T76).
T2 sequence (Q96T76 1-1030): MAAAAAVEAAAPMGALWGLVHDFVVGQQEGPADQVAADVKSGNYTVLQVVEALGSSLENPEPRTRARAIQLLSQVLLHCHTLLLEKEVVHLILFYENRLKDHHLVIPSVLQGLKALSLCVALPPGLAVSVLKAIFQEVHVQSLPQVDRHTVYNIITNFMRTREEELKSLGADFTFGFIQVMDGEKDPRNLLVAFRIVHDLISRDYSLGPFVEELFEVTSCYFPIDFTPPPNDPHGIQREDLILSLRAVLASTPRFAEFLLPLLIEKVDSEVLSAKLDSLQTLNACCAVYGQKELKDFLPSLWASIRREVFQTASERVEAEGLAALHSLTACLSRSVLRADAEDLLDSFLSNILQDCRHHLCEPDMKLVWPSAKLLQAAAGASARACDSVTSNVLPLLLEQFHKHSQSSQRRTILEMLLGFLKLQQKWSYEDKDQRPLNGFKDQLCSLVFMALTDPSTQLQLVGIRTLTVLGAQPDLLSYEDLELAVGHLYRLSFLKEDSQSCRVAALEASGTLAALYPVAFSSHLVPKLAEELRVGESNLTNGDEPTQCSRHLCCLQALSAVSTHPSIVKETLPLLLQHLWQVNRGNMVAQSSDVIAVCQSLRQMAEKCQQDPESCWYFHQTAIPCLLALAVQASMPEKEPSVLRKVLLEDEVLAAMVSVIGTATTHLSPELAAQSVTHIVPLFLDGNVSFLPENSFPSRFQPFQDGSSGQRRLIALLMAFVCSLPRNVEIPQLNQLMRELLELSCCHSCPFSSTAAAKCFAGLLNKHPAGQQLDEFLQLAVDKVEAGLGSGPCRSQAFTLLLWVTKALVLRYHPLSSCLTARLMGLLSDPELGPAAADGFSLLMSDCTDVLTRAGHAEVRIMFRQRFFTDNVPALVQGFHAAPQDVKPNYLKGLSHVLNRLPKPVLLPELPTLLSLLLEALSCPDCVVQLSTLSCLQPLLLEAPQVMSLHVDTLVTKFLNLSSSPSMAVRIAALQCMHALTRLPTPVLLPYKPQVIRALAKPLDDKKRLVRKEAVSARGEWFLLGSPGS

Test [5] has as its target T3, cysteines in MDA-MB-231 and Ramos cells (Homo sapiens, UniProt Q9Y3D0).
T3 sequence (Q9Y3D0 1-163): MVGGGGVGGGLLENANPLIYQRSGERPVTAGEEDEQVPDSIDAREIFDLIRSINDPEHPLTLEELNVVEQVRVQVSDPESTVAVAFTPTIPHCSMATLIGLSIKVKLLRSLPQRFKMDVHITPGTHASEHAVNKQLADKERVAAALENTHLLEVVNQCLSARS

Test [6] has as its target cysteines in MDA-MB-231 and Ramos cells (Homo sapiens, UniProt P38606).

SMILES strings stand for the structures.

cysteines in MDA-MB-231 and Ramos cells (Homo sapiens, UniProt Q15365), sequence (Q15365 whole entry): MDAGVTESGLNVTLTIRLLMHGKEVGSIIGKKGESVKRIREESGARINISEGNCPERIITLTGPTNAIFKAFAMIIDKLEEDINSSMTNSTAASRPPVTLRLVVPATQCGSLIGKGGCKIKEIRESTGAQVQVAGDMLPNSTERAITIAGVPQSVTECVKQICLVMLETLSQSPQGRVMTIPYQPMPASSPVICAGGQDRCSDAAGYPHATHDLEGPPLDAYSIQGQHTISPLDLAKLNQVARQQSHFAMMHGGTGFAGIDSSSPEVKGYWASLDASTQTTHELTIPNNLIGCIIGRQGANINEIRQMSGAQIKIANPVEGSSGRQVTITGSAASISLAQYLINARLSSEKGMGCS
cysteines in MDA-MB-231 and Ramos cells (Homo sapiens, UniProt Q8TAQ2), sequence (Q8TAQ2 whole entry): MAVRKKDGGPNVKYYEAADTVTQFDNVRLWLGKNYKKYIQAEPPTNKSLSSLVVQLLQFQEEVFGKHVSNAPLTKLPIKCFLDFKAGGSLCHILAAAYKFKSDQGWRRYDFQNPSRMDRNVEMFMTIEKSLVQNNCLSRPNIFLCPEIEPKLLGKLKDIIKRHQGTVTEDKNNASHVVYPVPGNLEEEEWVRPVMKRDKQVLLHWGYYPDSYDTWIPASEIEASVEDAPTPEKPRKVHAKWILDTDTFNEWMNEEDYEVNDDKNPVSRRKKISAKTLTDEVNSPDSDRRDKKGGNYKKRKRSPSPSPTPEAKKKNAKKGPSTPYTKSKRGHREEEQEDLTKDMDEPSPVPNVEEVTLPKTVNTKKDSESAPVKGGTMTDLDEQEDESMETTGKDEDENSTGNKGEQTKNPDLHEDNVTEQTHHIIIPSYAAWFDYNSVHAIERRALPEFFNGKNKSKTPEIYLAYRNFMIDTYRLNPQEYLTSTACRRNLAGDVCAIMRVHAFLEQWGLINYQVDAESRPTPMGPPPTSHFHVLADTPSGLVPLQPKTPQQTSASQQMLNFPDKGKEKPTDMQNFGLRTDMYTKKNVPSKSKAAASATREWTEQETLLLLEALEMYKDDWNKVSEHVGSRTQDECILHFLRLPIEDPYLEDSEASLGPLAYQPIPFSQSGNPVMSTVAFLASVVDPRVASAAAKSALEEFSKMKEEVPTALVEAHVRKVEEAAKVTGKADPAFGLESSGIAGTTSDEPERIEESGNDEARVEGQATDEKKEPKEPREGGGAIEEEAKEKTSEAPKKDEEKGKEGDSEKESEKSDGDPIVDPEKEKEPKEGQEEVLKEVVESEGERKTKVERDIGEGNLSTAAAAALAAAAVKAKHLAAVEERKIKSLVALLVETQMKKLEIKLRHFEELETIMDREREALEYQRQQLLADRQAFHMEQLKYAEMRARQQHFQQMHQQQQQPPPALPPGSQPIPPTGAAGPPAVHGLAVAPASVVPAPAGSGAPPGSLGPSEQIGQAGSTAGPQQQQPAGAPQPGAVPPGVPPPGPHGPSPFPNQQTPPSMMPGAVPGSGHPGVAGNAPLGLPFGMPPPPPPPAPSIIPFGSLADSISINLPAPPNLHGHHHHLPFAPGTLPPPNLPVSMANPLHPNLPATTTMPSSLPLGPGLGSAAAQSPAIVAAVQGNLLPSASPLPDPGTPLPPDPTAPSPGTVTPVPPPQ
cysteines in MDA-MB-231 and Ramos cells (Homo sapiens, UniProt P38606), sequence (P38606 whole entry): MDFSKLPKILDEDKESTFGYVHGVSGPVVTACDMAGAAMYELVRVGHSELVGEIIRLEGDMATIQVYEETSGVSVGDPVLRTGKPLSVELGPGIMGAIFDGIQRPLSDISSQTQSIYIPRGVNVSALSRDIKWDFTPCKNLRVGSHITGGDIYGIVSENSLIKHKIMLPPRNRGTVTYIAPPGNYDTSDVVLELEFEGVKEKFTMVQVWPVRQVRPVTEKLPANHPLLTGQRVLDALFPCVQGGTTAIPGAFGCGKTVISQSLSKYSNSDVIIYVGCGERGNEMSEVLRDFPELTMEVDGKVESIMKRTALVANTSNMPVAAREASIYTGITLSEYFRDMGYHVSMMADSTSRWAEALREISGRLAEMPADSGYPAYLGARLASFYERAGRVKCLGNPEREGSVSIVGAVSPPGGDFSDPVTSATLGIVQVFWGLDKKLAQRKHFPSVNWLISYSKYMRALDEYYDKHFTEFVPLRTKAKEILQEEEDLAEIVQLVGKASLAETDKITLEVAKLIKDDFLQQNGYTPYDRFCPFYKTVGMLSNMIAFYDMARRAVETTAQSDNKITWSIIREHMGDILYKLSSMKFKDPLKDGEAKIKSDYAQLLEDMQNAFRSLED

For the compound `COc1ccc2c(c1)CCCN2C(=O)CCl` [compound 2], in test [1] (200 μM, insitu, 231), the “isoTOP-ABPP reactivity Q13428_C38 TCOF1” value stood at 3.3 and the “isoTOP-ABPP reactivity Q13428_C1298 TCOF1” value is recorded as 4.7. In addition, the “isoTOP-ABPP reactivity Q15365_C194 PCBP1” value in test [2] (200 μM, insitu, 231) was 5.1. For the same compound, in test [3] (200 μM, insitu, 231), the “isoTOP-ABPP reactivity Q8TAQ2_C145 SMARCC2” value is on record as 4.6. For the same compound, the “isoTOP-ABPP reactivity Q96T76_C848 MMS19” value in test [4] (200 μM, insitu, 231) turned out to be 3.9. For the same compound, the “isoTOP-ABPP reactivity Q9Y3D0_C93 FAM96B” value in test [5] (200 μM, insitu, 231) was determined as 20.0.

On to `COc1ccc(C2CC(c3cccs3)=NN2C(=O)CCl)cc1` (stereo not drawn) [compound 4], for which, in test [6] (100 μM in situ 231), the “isoTOP-ABPP reactivity P38606_C138 ATP6V1A” value is on record as 20.0. Moreover, in test [1] (100 μM in situ 231), the “isoTOP-ABPP reactivity Q13428_C38 TCOF1” value amounted to 2.8 and the “isoTOP-ABPP reactivity Q13428_C1298 TCOF1” value amounted to 5.6. Further, the “isoTOP-ABPP reactivity Q15365_C194 PCBP1” value in test [2] (100 μM in situ 231) stood at 1.4. Besides, the “isoTOP-ABPP reactivity Q8TAQ2_C145 SMARCC2” value in test [3] (100 μM in situ 231) stood at 3.1. The “isoTOP-ABPP reactivity Q96T76_C848 MMS19” value in test [4] (100 μM in situ 231) came out at 20.0. Also, in test [5] (100 μM in situ 231), the “isoTOP-ABPP reactivity Q9Y3D0_C93 FAM96B” value is 20.0.

As to `COc1cc2c(cc1OC)CN(C(=O)CCl)CC2` [compound 8], in test [6] (200 μM, insitu, 231), the “isoTOP-ABPP reactivity P38606_C138 ATP6V1A” value was 20.0. In addition, in test [1] (200 μM, insitu, 231), the “isoTOP-ABPP reactivity Q13428_C38 TCOF1” value is 2.0 and the “isoTOP-ABPP reactivity Q13428_C1298 TCOF1” value worked out at 20.0. Also, the “isoTOP-ABPP reactivity Q15365_C194 PCBP1” value in test [2] (200 μM, insitu, 231) is reported as 1.4. For the same compound, in test [4] (200 μM, insitu, 231), the “isoTOP-ABPP reactivity Q96T76_C848 MMS19” value is given as 1.7.

On to `O=C(CCl)N1CCC(Cc2ccccc2)CC1` [compound 9], for which the “isoTOP-ABPP reactivity P38606_C138 ATP6V1A” value in test [6] (200 μM, insitu, 231) came out at 20.0. The “isoTOP-ABPP reactivity Q15365_C194 PCBP1” value in test [2] (200 μM, insitu, 231) is reported as 10.1. For the same compound, the “isoTOP-ABPP reactivity Q96T76_C848 MMS19” value in test [4] (200 μM, insitu, 231) worked out at 20.0.

For `O=C(CCl)N1CCN(S(=O)(=O)c2ccccc2F)CC1` [compound 10], in test [6] (200 μM, insitu, 231), the “isoTOP-ABPP ratio P38606_C138” value is reported as 20.0. Also, in test [1] (200 μM, insitu, 231), the “isoTOP-ABPP ratio Q13428_C38” value is 4.2 and the “isoTOP-ABPP ratio Q13428_C1298” value is 5.9. Further, in test [2] (200 μM, insitu, 231), the “isoTOP-ABPP ratio Q15365_C194” value came out at 1.6. In addition, the “isoTOP-ABPP ratio Q15365_C194” value in test [2] (200 μM, insitu, ramos) is recorded as 2.0. Moreover, in test [3] (200 μM, insitu, ramos), the “isoTOP-ABPP ratio Q8TAQ2_C145” value was 20.0. In addition, in test [4] (200 μM, insitu, 231), the “isoTOP-ABPP ratio Q96T76_C848” value worked out at 2.5. Further, the “isoTOP-ABPP ratio, cysteine Q96T76_C819” value in test [4] (200 μM, insitu, ramos) is recorded as 3.0. In test [5] (200 μM, insitu, 231), the “isoTOP-ABPP ratio Q9Y3D0_C93” value stood at 2.1.

For the compound `Cn1cc(S(=O)(=O)N2CCOCC2)cc1C(=O)NC(=O)CCl` [compound 11], the “isoTOP-ABPP ratio P38606_C138” value in test [6] (100 μM in situ 231) worked out at 9.2. For the same compound, in test [1] (100 μM in situ 231), the “isoTOP-ABPP ratio Q13428_C38” value is recorded as 1.1 and the “isoTOP-ABPP ratio Q13428_C1298” value is 0.8. Besides, the “isoTOP-ABPP ratio Q15365_C194” value in test [2] (100 μM in situ 231) was 0.4. The “isoTOP-ABPP ratio Q8TAQ2_C145” value in test [3] (100 μM in situ 231) stood at 7.6. Further, the “isoTOP-ABPP ratio, cysteine Q96T76_C819” value in test [4] (100 μM in situ 231) is reported as 0.8. The “isoTOP-ABPP ratio Q9Y3D0_C93” value in test [5] (100 μM in situ 231) is recorded as 0.9.

On to `O=C(CCl)NC(=O)NC12CC3CC(CC(C3)C1)C2` [compound 12], for which, in test [6] (200 μM, insitu, 231), the “isoTOP-ABPP ratio P38606_C138” value was determined as 20.0. Moreover, in test [1] (200 μM, insitu, 231), the “isoTOP-ABPP ratio Q13428_C38” value is on record as 4.7 and the “isoTOP-ABPP ratio Q13428_C1298” value came out at 20.0. The “isoTOP-ABPP ratio Q15365_C194” value in test [2] (200 μM, insitu, 231) came out at 1.3. The “isoTOP-ABPP ratio Q96T76_C848” value in test [4] (200 μM, insitu, 231) was found to be 20.0.
